Results as given in ChEMBL document CHEMBL5537177, “Discovery of Potent Antimalarial Type II Kinase Inhibitors with Selectivity over Human Kinases” (J Med Chem, 2024).
Activity calls are given as the source filed them. The calls are words filed in the database; no cut-off is given here.

Columns and labels:
[1] = Half life in mouse at 10 mg/kg, po; type: ADME, organism-based; conditions: in vivo
[2] = test system: Plasmodium falciparum; experiment: Antimalarial activity against Plasmodium falciparum harboring CARL I1139K mutation assessed as reduction in parasitemia incubated for 72 hrs by SYBR green I dye based analysis; type: functional, organism-based
[3] = test system: Plasmodium falciparum; experiment: Antiplasmodial activity against multidrug-resistant Plasmodium falciparum Dd2 at ring stage infected in A+ erythrocytes assessed as parasite growth reduction incubated for 72 hrs by SYBR Green I dye based analysis; type: functional, organism-based; conditions: Dd2, Erythrocyte
[4] = molecular target: Ephrin type-A receptor 2 (Homo sapiens, UniProt P29317); experiment: Inhibition of human EphA2 by FRET assay
[5] = Half life in mouse at 2 mg/kg, iv; type: ADME, organism-based; conditions: in vivo
[6] = test system: Plasmodium berghei; experiment: Antimalarial activity against […] Plasmodium berghei sporozoites expressing GFP-Luc SMcon infected in Swiss Webster mouse assessed as decrease in recrudescence at 15 to 50 mg/kg, iv pretreated for 6 hrs followed by parasite infection measured after 90 days post-infection by SYBR Green I dye based flow cytometry; type: functional, organism-based; conditions: dose 15-50 mg/kg, time 90.25 day
[7] = Tmax in mouse at 10 mg/kg, po; type: ADME, organism-based; conditions: in vivo
[8] = Selectivity index, ratio of EC50 for human MCF7 cells to EC50 for multidrug-resistant Plasmodium falciparum Dd2 at ring stage infected in A+ erythrocytes; type: toxicity, cell-based; conditions: read-out: Ratio EC50
[9] = test system: Plasmodium falciparum; experiment: Antimalarial activity against synchronized Plasmodium falciparum Dd2 assessed as reduction in parasite growth at early asexual stage treated 36 hrs post-invasion measured after 72 hrs by SYBR green I dye based microscopy; type: functional, organism-based
[10] = Cmax in mouse at 2 mg/kg, iv; type: ADME, organism-based; conditions: in vivo
[11] = test system: Plasmodium falciparum; experiment: Antimalarial activity against artemisinin/piperaquine-resistant synchronized early ring stage Plasmodium falciparum IPC 6261 (MRA-1284) clinical isolate assessed as decrease in parasite survival at ring stage at 10 times EC50 treated for 48 hrs followed by compound removal measured after 72 hrs by geimsa staining based microscopy; type: functional, organism-based
[12] = test system: Plasmodium falciparum; experiment: Antimalarial activity against synchronized early ring stage Plasmodium falciparum 3D7 (MRA-152) clinical isolate assessed as decrease in parasite survival at ring stage at 10 times EC50 treated for 6 to 48 hrs followed by compound removal measured after 72 hrs by geimsa staining based microscopy; type: functional, organism-based
[13] = test system: Plasmodium falciparum; experiment: Antimalarial activity against synchronized early ring stage Plasmodium falciparum 3D7 (MRA-152) clinical isolate assessed as decrease in parasite survival at ring stage at 10 times EC50 treated for 48 hrs followed by compound removal measured after 72 hrs by geimsa staining based microscopy; type: functional, organism-based
[14] = test system: Plasmodium falciparum; experiment: Antimalarial activity against ring-stage Plasmodium falciparum Dd2 infected in O+ RBCs assessed as reduction in parasitemia incubated for 72 hrs by SYBR green I dye based analysis; type: functional, organism-based, RBC; conditions: Dd2, Erythrocyte
[15] = test system: Plasmodium falciparum; experiment: Antimalarial activity against synchronized Plasmodium falciparum 3D7 assessed as reduction in parasite growth at early asexual stage treated 6 hrs post-invasion measured after 72 hrs by SYBR green I dye based microscopy; type: functional, organism-based
[16] = Cmax in mouse at 10 mg/kg, po; type: ADME, organism-based; conditions: in vivo
[17] = AUC (last) in mouse at 10 mg/kg, po; type: ADME, organism-based; conditions: in vivo
[18] = Volume of distribution at steady state in mouse at 2 mg/kg, iv; type: ADME, organism-based; conditions: in vivo, read-out: Vdss
[19] = test system: Plasmodium falciparum; experiment: Antiplasmodial activity against drug-sensitive Plasmodium falciparum 3D7 at ring stage infected in A+ erythrocytes assessed as parasite growth reduction incubated for 72 hrs by SYBR Green I dye based analysis; type: functional, organism-based; conditions: 3D7, Erythrocyte
[20] = test system: Plasmodium falciparum; experiment: Antimalarial activity against synchronized Plasmodium falciparum Dd2 assessed as aberrant morphology of parasites at 5 times EC50 treated 42 hrs post-invasion measured after 54 hrs post-invasion by Geimsa staining based microscopy; type: functional, organism-based; conditions: time 12.0 hrs
[21] = test system: Plasmodium falciparum; experiment: Antimalarial activity against artemisinin-sensitive synchronized early ring stage Plasmodium falciparum IPC 5188 (MRA-1239) clinical isolate assessed as decrease in parasite survival at ring stage at 10 times EC50 treated for 6 hrs followed by compound removal measured after 72 hrs by geimsa staining based microscopy; type: functional, organism-based
[22] = test system: Plasmodium falciparum; experiment: Antimalarial activity against synchronous blood-stage Plasmodium falciparum 3D7 assessed as duration of lag phase at 10 times EC50 treated every 24 hrs for 120 hrs followed by compound washout and subsequent addition of RBCs measured after 21 days by parasite reduction ratio assay; type: functional
[23] = test system: Plasmodium falciparum; experiment: Parasiticidal activity against asynchronous blood-stage Plasmodium falciparum Dd2 at 10 times EC50 treated for 12 hrs followed by compound washout and measured for 4 days by flow cytometry; type: functional, organism-based
[24] = Selectivity index, ratio of EC50 for human HepG2 cells to EC50 for multidrug-resistant Plasmodium falciparum Dd2 at ring stage infected in A+ erythrocytes; type: toxicity, cell-based; conditions: read-out: Ratio EC50
[25] = test system: Plasmodium falciparum; experiment: Antimalarial activity against artemisinin/piperaquine-resistant synchronized early ring stage Plasmodium falciparum IPC 6261 (MRA-1284) clinical isolate assessed as decrease in parasite survival at ring stage at 10 times EC50 treated for 6 to 48 hrs followed by compound removal measured after 72 hrs by geimsa staining based microscopy; type: functional, organism-based
[26] = test system: Plasmodium falciparum; experiment: Antimalarial activity against synchronized Plasmodium falciparum Dd2 assessed as reduction in parasite growth at early asexual stage treated 16 hrs post-invasion measured after 72 hrs by SYBR green I dye based microscopy; type: functional, organism-based
[27] = test system: Plasmodium berghei; experiment: Antimalarial activity against Plasmodium berghei sporozoites expressing luciferase infected in human HepG2-A16-CD81 cells assessed as reduction in parasite growth incubated for 18 hrs; type: functional, organism-based; conditions: HepG2-A16-CD81, 18 h
[28] = test system: Plasmodium falciparum; experiment: Antimalarial activity against artemisinin-resistant synchronized early ring stage Plasmodium falciparum IPC 5202 (MRA-1240) clinical isolate assessed as decrease in parasite survival at ring stage at 10 times EC50 treated for 48 hrs followed by compound removal measured after 72 hrs by geimsa staining based microscopy; type: functional, organism-based
[29] = test system: Plasmodium berghei; experiment: Antimalarial activity against […] Plasmodium berghei sporozoites expressing GFP-Luc SMcon infected in Swiss Webster mouse assessed as reduction in parasitemia at 15 to 50 mg/kg, iv pretreated for 6 hrs followed by parasite infection measured for 2 to 16 days post-infection by SYBR Green I dye based flow cytometry; type: functional, organism-based; conditions: dose 15-50 mg/kg, time 2.25-16.25 day
[30] = test system: MCF7; experiment: Cytotoxicity against human MCF7 cells assessed as reduction in cell viability incubated for 48 hrs by MTS assay; type: toxicity, cell-based; conditions: mcf7
[31] = test system: Plasmodium falciparum; experiment: Antimalarial activity against synchronous blood-stage Plasmodium falciparum 3D7 assessed as log of parasite reduction ratio at 10 times EC50 treated every 24 hrs for 120 hrs followed by compound washout and subsequent addition of RBCs measured after 21 days; type: functional
[32] = AUC (infinity) in mouse at 2 mg/kg, iv; type: ADME, organism-based; conditions: in vivo
[33] = test system: Plasmodium falciparum; experiment: Antimalarial activity against artemisinin-resistant synchronized early ring stage Plasmodium falciparum IPC 5202 (MRA-1240) clinical isolate assessed as decrease in parasite survival at ring stage at 10 times EC50 treated for 6 hrs followed by compound removal measured after 72 hrs by geimsa staining based microscopy; type: functional, organism-based

Ephrin type-A receptor 2, sequence (P29317 whole entry): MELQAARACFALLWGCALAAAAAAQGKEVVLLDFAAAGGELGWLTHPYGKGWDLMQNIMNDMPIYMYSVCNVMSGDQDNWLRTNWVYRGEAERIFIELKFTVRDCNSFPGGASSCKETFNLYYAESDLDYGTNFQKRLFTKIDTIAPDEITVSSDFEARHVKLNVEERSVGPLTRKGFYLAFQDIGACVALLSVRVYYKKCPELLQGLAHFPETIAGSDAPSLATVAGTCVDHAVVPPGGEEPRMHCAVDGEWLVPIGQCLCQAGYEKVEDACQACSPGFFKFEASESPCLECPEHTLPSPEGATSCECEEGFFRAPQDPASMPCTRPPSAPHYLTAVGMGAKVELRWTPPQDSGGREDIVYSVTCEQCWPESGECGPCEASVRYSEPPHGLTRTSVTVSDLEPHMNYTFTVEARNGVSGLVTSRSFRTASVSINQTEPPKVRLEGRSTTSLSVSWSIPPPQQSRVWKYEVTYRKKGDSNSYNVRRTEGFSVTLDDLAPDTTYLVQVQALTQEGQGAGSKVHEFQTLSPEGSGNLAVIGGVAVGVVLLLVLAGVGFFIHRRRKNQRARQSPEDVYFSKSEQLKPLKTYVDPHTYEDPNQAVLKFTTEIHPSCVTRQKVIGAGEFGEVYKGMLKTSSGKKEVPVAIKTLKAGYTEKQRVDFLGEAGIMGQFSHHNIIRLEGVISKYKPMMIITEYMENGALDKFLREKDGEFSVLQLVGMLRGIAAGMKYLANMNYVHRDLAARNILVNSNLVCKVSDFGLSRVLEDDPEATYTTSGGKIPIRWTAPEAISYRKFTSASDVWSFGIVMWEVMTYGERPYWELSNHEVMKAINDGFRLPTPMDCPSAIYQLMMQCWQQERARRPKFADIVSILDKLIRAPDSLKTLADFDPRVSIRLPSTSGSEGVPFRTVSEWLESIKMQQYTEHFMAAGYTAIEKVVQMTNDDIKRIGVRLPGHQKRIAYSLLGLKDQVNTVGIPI

CCN1CCN(Cc2ccc(NC(=O)c3cc(Cl)cc(NC(=O)c4cncc(-c5cccs5)c4)c3)cc2C(F)(F)F)CC1
half-life [1]: 5.71 h | EC50 [2]: 65.8 nM | EC50 [3]: 58 nM | IC50 [4]: > 10000 nM | half-life [5]: 4.16 h | Activity [6]: Active | Tmax [7]: 4.67 h | selectivity ratio [8]: 61 | EC50 [9]: 80 nM | Cmax [10]: 11100 ng/mL | Activity [11]: Active | EC50 [12]: 61.1 nM | Activity [13]: Active | EC50 [14]: 22.9 nM | EC50 [15]: 29.6 nM | Cmax [16]: 153 ng/mL | AUC(0-t) [17]: 866 ng·h/mL | Vd [18]: 0.84 L/kg | EC50 [19]: 42 nM | Activity [20]: Active | Activity [21]: inactive | Time [22]: 0 h | Activity [23]: Active | selectivity ratio [24]: 45 | EC50 [25]: 108 nM | EC50 [26]: 37.2 nM | EC50 [27]: 1770 nM | Activity [28]: Active | Activity [29]: Active | EC50 [30]: 3510 nM | log(activity) [31]: 3.75 | AUC(0-inf) [32]: 8160 ng·h/mL | Activity [33]: inactive
